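Dose response: 5 concentrations. Exposure: 48 h. Format: 96-well plates. Endpoint: linear interpolation; highest concentration if not reached. Abbreviation: GI50, concentration required for 50% inhibition of growth. The concentration for full growth arrest is given as TGI.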 Where only a bound is given, the exact number is not on record here.

This note sets out measurements from PubChem BioAssay (NCI).

What all share (assay): DTP human tumour cell line panel, 48 h
In test [1] the test system is OVCAR-3 ovarian.
Test [2] deals with OVCAR-5 ovarian.
In test [3] the test system is OVCAR-8 ovarian.
The test system of test [4] is IGROV1 ovarian.
Test [5] has as its system CAKI-1 renal.
For test [6], the system named is HS 578T breast.
Test [7] has as its system UACC-62 melanoma.
Test [8] relates to NCI-H522 lung.
Test [9] deals with UO-31 renal.
The test system of test [10] is EKVX NSCLC.

For `CCOc1nc(-c2ccccc2)cc2c(O)c(-c3nnco3)[nH]c(=O)c12`, the GI50 – broadly, the concentration at which growth is held to half of that of the control – in [1] was 4.42 µM; in [2], over 82.3 µM; in [3], 4.24 µM; in test [4], 3.63 µM; in test [5] it was 4.15 µM; in test [6] it was 5.39 µM. For the same compound, the results for the GI50 in [7], in test [8] and in [9] were 6.47 µM, 3.09 µM and 2.11 µM, respectively. In addition, the TGI (as a rule, the concentration at which net growth stops) in test [1] was over 100 µM; in [2], over 100 µM; in [3] it was over 100 µM; in test [4] it was over 89.8 µM; in [5] it was over 100 µM; in test [6] it was 30.1 µM. For the same compound, the TGI in test [7], in test [8] and in test [9] was over 100 µM each time.

`O=C(Nc1ccc(OS(=O)(=O)c2ccccc2)cc1)C12CC3CC(CC(C3)C1)C2`: the GI50 was over 100 µM in test [2]; over 100 µM in test [3]; over 100 µM in test [4]; 7.08 µM in test [5]; 7.29 µM in test [6]; 6.47 µM in test [7]. Moreover, the GI50 in [8] is 4.36 µM; in [9] it was 18.7 µM. Further, the TGI in [2], in test [3], in test [4], in [5], in test [6] and in test [7] was over 100 µM in each case. For the same compound, the concentration for total growth inhibition (TGI) in test [8] and in test [9] was over 100 µM throughout.

For `COc1ncnc(C2CC2)c1-c1ncc2cnn(Cc3ccc(-c4nc(C(F)(F)F)cn4C(C)C)cc3)c2n1`, the GI50 in test [1] is 22.2 µM; in [2], 26.2 µM; in test [3], 21 µM; in test [4], 21.1 µM; in [10], 19 µM; in test [5] it was 14.2 µM. Also, the GI50 was 17.8 µM in test [6], 8.52 µM in test [8] and 3.25 µM in [9]. Also, the TGI in test [1] was 76.5 µM; in test [2], over 100 µM; in test [3] it was over 100 µM; in test [4] it was over 100 µM; in [10], 95.3 µM; in test [5], over 100 µM. For the same compound, the TGI in [6] was over 100 µM; in test [8], 48.3 µM; in test [9], 36.7 µM.

As for `OCCN1CN(CCO)CN(c2nc(N3CN(CCO)CN(CCO)C3)nc(N3CN(CCO)CN(CCO)C3)n2)C1`, the GI50 is 2.2 ng/mL in test [1]; 1.55 ng/mL in [4]; 1.16 ng/mL in [10]; 3.08 ng/mL in test [6]; 0.991 ng/mL in test [7]; 1.04 ng/mL in test [8]. Besides, the GI50 in test [9] is 1.5 ng/mL. Further, the TGI was 6300 ng/mL in test [1]; 13.3 ng/mL in [3]; 4.61 ng/mL in test [4]; 2.87 ng/mL in test [10]; 9.43 ng/mL in test [6]; 3.31 ng/mL in [7]. Further, the TGI came to 2.91 ng/mL in [8] and 4.4 ng/mL in test [9].

Take `C/C(=C\CCc1ccoc1)CC/C=C(\C)CCCC1=CC(=O)OC1`: the GI50 in test [1] is 9.69 µM; in test [2] it was 12.5 µM; in [3] it was 5.11 µM; in test [4] it was 19.5 µM; in test [5], 5.01 µM; in [6] it was 3.26 µM. In addition, the values for the GI50 in test [7], in test [8] and in [9] were 4.73 µM, 5.45 µM and 4.35 µM, respectively. Further, the total growth inhibition concentration (TGI) in [1] was 25 µM; in test [2] it was 68.9 µM; in [3], 29.8 µM; in test [4], over 100 µM; in test [5], over 100 µM; in test [6] it was 36 µM. The total growth inhibition concentration (TGI) in [7] is 29.7 µM; in [8] it was 22.2 µM; in test [9] it was 48.7 µM.

Take `C=C(C=O)C1CCC2(C(=O)O)CCC3(C)C(CCC4C5(C)CCC(O)C(C)(C)C5CCC43C)C12` (configuration not stated): the GI50 in [1] is 1.44 µM; in [2] it was 2.99 µM; in [3], 4.09 µM; in [4], 1.92 µM; in test [10] it was 6.23 µM; in [6], 10.1 µM. Moreover, the GI50 in [7] is 1.64 µM; in test [8], 1.96 µM; in test [9], 0.627 µM. For the same compound, the TGI in test [1] is 2.87 µM; in test [2], 6.82 µM; in [3], 32.2 µM; in test [4], 4.21 µM; in test [10], over 61.7 µM; in [6] it was over 100 µM. In addition, the TGI in test [7] amounted to 3.57 µM; in [8] it was 5 µM; in [9] it was 2.16 µM.

In the case of `C=CC1CC12C(=O)C1OC2(C)C2C(=O)c3cc4ccccc4cc3C(=O)C12` (configuration not stated), the GI50 is 61.2 µM in [2]; 24.2 µM in test [3]; 39 µM in [4]; 16.8 µM in test [10]; 12 µM in [5]; 27 µM in [6]. In addition, the GI50 is 29.3 µM in test [8] and 53.3 µM in [9]. For the same compound, the TGI is over 100 µM in test [2]; 92.3 µM in test [3]; over 100 µM in test [4]; over 100 µM in test [10]; 35.7 µM in test [5]; 92 µM in test [6]. In addition, the TGI in test [8] and in test [9] was over 100 µM each time.

Consider `CC/C(=C(/c1ccc(OCCN(C)C)cc1)c1ccc(OC(=O)CCCCC(=O)c2c(C)[nH]c(/C=C3\N=C(c4ccc[nH]4)C=C3OC)c2C)cc1)c1ccccc1`, for which the GI50 in [1] was 11.7 µM; in [2], 10.6 µM; in test [3] it was 6.55 µM; in [4] it was 13.3 µM; in test [5] it was 6.27 µM; in [6], 4.98 µM. For the same compound, the GI50 in [7] is 4.94 µM; in test [8], 3.59 µM; in [9] it was 2.81 µM. The TGI in test [1] worked out at 27 µM; in test [2] it was 22.5 µM; in [3], 19.9 µM; in test [4], 46 µM; in [5], 36.1 µM; in test [6], 47.6 µM. The TGI came out at 17.8 µM in test [7], 14.3 µM in test [8] and 21.3 µM in [9].
